Experimental data reported in patent publication US20160008336A1, “HDAC INHIBITORS FOR THE TREATMENT OF TRAUMATIC BRAIN INJURY” (Lixte Biotechnology, Inc., priority 2013, published 2016).
“Also recorded” adds a separate entry of the source.

Experiments:
[1] = test system: rodent brains following TBI (controlled cortical impact); assay: FDG-PET imaging of rat brains after TBI; assay type: in vivo; settings: for glucose uptake levels: rat brain cells following TBI, activity expected analogous to 205
Protocol: (§1) The rats are anesthetized as described above. The rodent's head is be shaved, the animal placed in a stereotaxic device, the skin is prepared as in the Aseptic Techniques described above and the skull exposed using a small surgical incision over the temporal scalp. A small surgical incision (9-10 mm), a burr hole in the skull (5-6 mm), and a single contusion over the right frontal cortex is performed (FIG. 7). A 5.0 mm burr hole is drilled into the skull with a hand-held trephine to expose the dura mater. […] A single contusion is then made onto the surface of the dura (tip penetration depth of 2.1 mm, velocity of 5 m/s) over the left frontal cortex. Following CCI, the burr hole is covered with a bone flap, sealed with Jet Denture Repair Professional Package, and then the incision is closed with non-absorbable suture in a simple interrupted pattern. Sham-treated controls are treated similarly, but the impactor is not activated.
(§2) TBI rodent model animals are treated with HDACis post-surgery at 4 h, 24 h and 48 h. The efficiency of HDACi treatment is evaluated as shown in FIG. 9 by studying the following parameters: • A=FDG-PET imaging analysis • B=Rota behavior test • C=Pathology analysis (H&E, IHC, IF, & gross) • D=Frozen samples (2D gel and WB) • E=Harvest animals and procure brain samples • Tx=HDI treatment
FDG-PET imaging is conducted in larger animal cohorts treated with different drug concentrations to further confirm HDACis potential therapeutic effect in treating TBI and in increasing […].
^18F-FDG is purchased from the Nuclear Pharmacy of Cardinal Health, and reconstituted with sterile saline. PET scans and image analysis are performed using an Inveon microPET scanner (Siemens Medical Solutions). Each rat is injected with 18.5 MBq (500 μCi) of ^18F-FDG via tail vein. All the rats are maintained under anesthesia and warmed condition. 10 min static scans are acquired at 1 h after injection. The images are reconstructed using a two-dimensional ordered-subset expectation maximum (OSEM) algorithm, and no correction is applied for attenuation or scatter. For each microPET scan, regions of interest (ROIs) are drawn over the brain and muscle region using vendor software ASI Pro 5.2.4.0 on decay-corrected whole-body coronal images. The radioactivity accumulation within brain, heart and brown fat are obtained from mean pixel values within the multiple ROI volumes and then converted to megabecquerels (MBq) per milliliter […] using a conversion factor. These values are then divided by the administered activity to obtain (assuming a tissue density of 1 g/ml) an image-ROI-derived percent injected dose per gram (% ID/g).

[2] = test system: post-traumatic brain injured rats; assay: Behavioral motor performance (balance beam) test after TBI; assay type: in vivo, rat; settings: for motor skills tests: rats post-TBI, activity expected analogous to 205
Protocol: as §1, §2
Balance Beam Test: The balance beam is a test of motor coordination (3-4). It is also a useful assay for sedation and joint pathology. Several beams are available. In general the round beams are harder than the square beams, and the thinner the beam the harder the test. In this test, animals have to walk and cross a round balance beam (like across one meter bridge-bar) to test their balance and motor skills. The score is recorded compared to sham group: • 100%: walk balance and cross whole balance beam. • 10%-90%: walk balance and cross balance beam from 10 cm to 90 cm. • 0%: walk unbalance and slip down

Caspase 3 = assay: Western blot of TBI brain tissue, Caspase 3; assay type: in vivo, rat; settings: for Pro-Caspase 3 expression: rat brain cells following TBI
Protocol: as §2
(§3) Sections of frozen tissue protein from normal brain and TBI tissues in the injury area are extracted in T-PER solution, sonicated and centrifuged at 15,000 g at 4° C. to remove insoluble debris. The supernatant is used as the lysate. The protein concentration in each sample is measured by a colorimetric assay (Bio-Rad Protein Assay Kit) (Bio-Rad; Hercules, Calif.). Samples are denatured at 95° C. for 5 minutes in protein loading buffer. Equal amounts of protein at thirty micrograms of each lysate is loaded onto 4%-20% SDS-polyacrylamide gel (Invitrogen), and the proteins are electrophoretically transferred to nitrocellulose membranes and blocked with 5% milk solution. Detection of protein-bound primary antibodies is performed with a horseradish peroxidase-conjugated secondary antibody specific to rabbit or mouse immunoglobulin for one hour and an enhanced chemiluminescence system. Expression of specific proteins in each sample are determined and TBI injury tissue protein expression are compared to normal brain.

phosphorylated-AKT = assay: Western blot of TBI brain tissue, p-AKT; assay type: in vivo; settings: rat brain cells following TBI; for p-Akt expression: activity expected analogous to 205
Protocol: as §2, §3

Nestin = assay: Immunofluorescence / immunohistochemistry after TBI, Nestin; assay type: in vivo, rat
Protocol: as §2
(§4) Immunohistochemistry staining is performed using commercially available GFAP and Nestin primary antibodies (Abcam) on formalin-fixed paraffin-embedded tissue mounted on positively charged slides. The expression of Nestin is thought to identify neural stem and progenitor cells within the central nervous system. GFAP expression, however, is thought to represent astrocyte activation. Samples are labeled and visualized using a DAB staining kit (EnvisionKit; Dako, Carpinteria, Calif., USA). Immunofluorescence staining is also performed (with primary antibodies for GFAP and Nestin) in order to best assess the spatial and temporal pattern of expression of molecular markers associated with astrocyte activation and gliosis observed during the brain tissue injury repair process. The specimens are visualized using a Zeiss LSM 510 confocal microscope (Carl Zeiss, Thornwood, N.Y., USA).

[3] = test system: TBI damage area of rodent brain; assay: Pathological analysis (H & E staining) and gross appearance after TBI; assay type: in vivo, rat
Protocol: as §1, with “Sham-treated controls are treated similarly, but the impactor is not activated.” left out
as §2
Brain injury areas are measured and calculated post-TBI at 4 hours, day 1, and week (according to FIG. 9). […]

GFAP = assay: Immunofluorescence / immunohistochemistry after TBI, GFAP; assay type: in vivo, rat; settings: vs sham and TBI untreated brains, FIG. 6
Protocol: as §2, §4

[4] = relative to SAHA; cited from earlier work
transformed cells = settings: in vitro and in vivo; background; cited from earlier work
[5] = activity expected analogous to 205

Row | SMILES | glucose uptake levels [1] | motor skills tests [2] | Pro-Caspase 3 expression (Caspase 3; [5]) | p-Akt expression (phosphorylated-AKT) | formation of new stem-like proliferative neural cells following TBI (Nestin; [5]) | other results
1 | O=C(CCCCCNC(=O)c1ccccc1S)Nc1ccccc1 [Compound 201, 2-Mercapto-N-[5-(phenyl-3-ylcarbamoyl)pentyl]benzamide] | increase | perform significantly better | decrease | increase | induce formation | –
2 | O=C(NCCCCCCNC(=O)c1ccccc1O)c1ccccc1O [Compound 203] | increase | perform significantly better | decrease | increase | induce formation | –
3 | O=C(NCCCCCCNC(=O)c1ccccc1S)c1ccccc1S [Compound 204] | increase | perform significantly better | decrease | increase | induce formation | –
4 | O=C(CCCCCNC(=O)c1ccccc1S)Nc1cccnc1 [Compound 205, 2-Mercapto-N-[5-(pyridin-3-ylcarbamoyl)pentyl]benzamide] | – | – | – | – | – | glucose uptake levels at the site of injury (FDG-PET) ([1]; rats post-TBI, treated post-surgery at 4 h, 24 h and 48 h, FIG. 1): significantly increased; also recorded: increased glucose levels; angiogenic activity in the brain ([1]; rodent model of TBI, post-injury administration): up-regulated angiogenic activity; H & E staining: reactive gliosis and cellularity ([3]; FIG. 3): increased reactive gliosis (arrow) and more active brain cells observed; also recorded: increased reactive gliosis (as well as increased cellularity); gross appearance of TBI damage area / scarring ([3]; gross post-mortem examination, FIG. 2): improved; also recorded: much less scaring and less appearance of obvious injury; also recorded: reduced scarring; behavioral motor performance (motor skill tests) ([2]; post-injury administration, 10 mg/kg, one meter bar, FIG. 4): improves behavioral performance; also recorded: performed significantly better; Cleaved Caspase 3 expression (Caspase 3; Western blot, FIG. 5a): significantly decreased; Pro-Caspase 3 expression (Caspase 3; FIG. 5a): decreased; p-AKT expression (phosphorylated-AKT; FIG. 5b): increased; formation of new stem-like proliferative neural cells following TBI (Nestin; following TBI): induced formation; Nestin staining / expression (Nestin; vs sham and TBI untreated brains, FIG. 6): increased; GFAP staining / expression (GFAP): increased; half-life in vivo [4]: longer half-life in vivo
5 | CN(C)c1ccc(NC(=O)CCCCCNC(=O)c2ccccc2S)cc1 [Compound 206] | increase | perform significantly better | decrease | increase | induce formation | –
6 | O=C(CCCCCNC(=O)c1cc(Cl)ccc1S)Nc1cccnc1 [Compound 207a] | increase | perform significantly better | decrease | increase | induce formation | –
7 | O=C(NCCCCCNC(=O)c1ccccc1S)c1cccnc1 [Compound 208] | increase | perform significantly better | decrease | increase | induce formation | –
8 | Nc1ccc(NC(=O)CCCCCNC(=O)c2ccccc2S)cc1 [Compound 209] | increase | perform significantly better | decrease | increase | induce formation | –
9 | O=C(CCCCCNC(=O)c1cc(Cl)ccc1S)Nc1ccccc1 [Compound 210] | increase | perform significantly better | decrease | increase | induce formation | –
10 | COc1ccc(S)c(C(=O)NCCCCCC(=O)Nc2ccccc2)c1 [Compound 211] | increase | perform significantly better | decrease | increase | induce formation | –
11 | O=C(CCCCCCNC(=O)c1ccccc1S)Nc1ccccc1 [Compound 212] | increase | perform significantly better | decrease | increase | induce formation | –
12 | O=C(CCCCCCCNC(=O)c1ccccc1S)Nc1ccccc1 [Compound 213] | increase | perform significantly better | decrease | increase | induce formation | –
13 | O=C(CCCCCCCCCCNC(=O)c1ccccc1S)Nc1ccccc1 [Compound 214] | increase | perform significantly better | decrease | increase | induce formation | –
14 | O=C(CCCCCCC(=O)Nc1ccccc1)NO [SAHA, Suberoylanilide hydroxamic acid] | – | – | – | – | – | growth arrest and death of transformed cells (transformed cells): causes growth arrest and death
